Experiment [1] relates to MCF7. Nature of the experiment: Growth inhibition of human MCF7 cells by MTT assay. The class given is functional, cell-based. The note with it: for IC50: Homo sapiens, MCF7.
Experiment [2] concerns HCT-116. In words: Growth inhibition of human HCT116 cells by MTT assay. The note with it: for IC50: Homo sapiens, HCT-116. The class given is functional, cell-based. (In general: Tetrazolium assays rely on reduction of a dye to a coloured formazan, in cell work by metabolically active cells.)
Experiment [3] addresses T1, Phosphatidylinositol 4,5-bisphosphate 3-kinase catalytic subunit alpha isoform (Homo sapiens, UniProt P42336). Nature of the experiment: Inhibition of PI3K p110alpha (unknown origin) assessed as residual activity using PIP2 as substrate preincubated for 10 mins followed by substrate addition measured after 1 hr relative to control. Also on record: concentration or dose not given beside the values.

Experiment [4] has as its target T1, Phosphatidylinositol 4,5-bisphosphate 3-kinase catalytic subunit alpha isoform. In words: Inhibition of PI3K p110alpha (unknown origin) using PIP2 as substrate preincubated for 10 mins followed by substrate addition measured after 1 hr.

The record followed here is ChEMBL document CHEMBL4024737, “Iodine catalyzed three component synthesis of 1-((2-hydroxy naphthalen-1-yl)(phenyl)(methyl))pyrrolidin-2-one derivatives: Rationale as potent PI3K inhibitors and anticancer agents” (Bioorg Med Chem Lett, 2017).

The IC50 is the concentration that gives 50% inhibition.

Active and inactive are the calls of the source. The calls are words filed in the database; no cut-off is given here.

T1 sequence (P42336 whole entry, canonical isoform): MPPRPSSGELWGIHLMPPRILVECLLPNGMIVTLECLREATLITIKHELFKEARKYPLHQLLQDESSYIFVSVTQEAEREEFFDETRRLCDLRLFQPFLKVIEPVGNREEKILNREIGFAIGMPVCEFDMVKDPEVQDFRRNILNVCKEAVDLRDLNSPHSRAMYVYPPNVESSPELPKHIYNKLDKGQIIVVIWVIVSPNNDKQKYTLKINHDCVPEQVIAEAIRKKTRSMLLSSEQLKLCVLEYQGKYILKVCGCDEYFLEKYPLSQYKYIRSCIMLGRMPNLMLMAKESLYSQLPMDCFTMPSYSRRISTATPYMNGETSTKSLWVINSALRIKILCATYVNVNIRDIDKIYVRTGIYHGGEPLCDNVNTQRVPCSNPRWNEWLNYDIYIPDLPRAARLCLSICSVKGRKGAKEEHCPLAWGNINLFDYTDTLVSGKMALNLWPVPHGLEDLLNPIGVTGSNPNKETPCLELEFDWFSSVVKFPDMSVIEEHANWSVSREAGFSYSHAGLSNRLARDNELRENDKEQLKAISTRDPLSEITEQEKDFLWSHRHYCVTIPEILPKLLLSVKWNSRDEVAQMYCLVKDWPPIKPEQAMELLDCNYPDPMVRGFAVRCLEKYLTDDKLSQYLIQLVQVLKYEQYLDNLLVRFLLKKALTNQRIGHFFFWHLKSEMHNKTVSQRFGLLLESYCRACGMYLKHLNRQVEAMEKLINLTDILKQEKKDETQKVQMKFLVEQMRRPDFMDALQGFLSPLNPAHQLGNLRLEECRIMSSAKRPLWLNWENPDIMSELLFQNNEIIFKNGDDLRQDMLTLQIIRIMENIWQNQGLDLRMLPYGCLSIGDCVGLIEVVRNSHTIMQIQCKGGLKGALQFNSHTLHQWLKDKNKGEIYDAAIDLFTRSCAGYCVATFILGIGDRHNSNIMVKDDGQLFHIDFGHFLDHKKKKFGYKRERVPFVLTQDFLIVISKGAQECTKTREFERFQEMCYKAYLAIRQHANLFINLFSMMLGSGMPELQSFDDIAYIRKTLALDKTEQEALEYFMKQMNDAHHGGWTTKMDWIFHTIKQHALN

Turning to `COc1cccc2c1C(=O)c1c(O)c3c(c(O)c1C2=O)C[C@@](O)(C(=O)CO)C[C@@H]3O[C@H]1C[C@H](N)[C@H](O)[C@H](C)O1` [DOXORUBICIN], the “growth inhibition (GI)” value in experiment [1] is 77.98%. Also, in experiment [2], the “growth inhibition (GI)” value is “inactive”.

As to `Cc1ccc(C(c2c(O)ccc3ccccc23)N2CCCC2=O)cc1` (centres undefined), the “growth inhibition (GI)” value in experiment [1] came to 56.46%; in experiment [2], 26.28%. Besides, the results for the IC50 in experiment [1], in experiment [2] and in experiment [4] were 4.81 µM, 24.8 µM and under 5 µM, respectively. For the same compound, the Activity in experiment [3] turned out to be 52%.

On to `O=C1CCCN1C(c1ccccc1Cl)c1c(O)ccc2ccccc12` (centres undefined), for which the “growth inhibition (GI)” value is 55.01% in experiment [1] and 40.12% in experiment [2]. Moreover, the half-maximal inhibitory concentration (IC50) in experiment [1] was 6.58 µM; in experiment [2], 26.6 µM; in experiment [4], at least 5 µM. For the same compound, the Activity in experiment [3] came out at 55%.

Regarding `COc1ccc(C(c2c(O)ccc3ccccc23)N2CCCC2=O)cc1` (centres undefined), the “growth inhibition (GI)” value in experiment [1] was 38.98%; in experiment [2] it was 56.44%. In addition, the IC50 in experiment [1] is 12 µM; in experiment [2], 12 µM; in experiment [4], at least 10 µM. Besides, the Activity in experiment [3] was 38%.

Consider `O=C1CCCN1C(c1ccccc1)c1c(O)ccc2ccccc12` (centres undefined), for which, in experiment [1], the “growth inhibition (GI)” value turned out to be 25.46% and the IC50 was found to be 82.2 µM. Further, the “growth inhibition (GI)” value in experiment [2] was “inactive”. Besides, the Activity in experiment [3] came to 32%. Besides, in experiment [4], the IC50 was at least 25 µM.

As to `O=C1CCCN1C(c1ccccc1F)c1c(O)ccc2ccccc12` (centres undefined), the “growth inhibition (GI)” value in experiment [1] was 60.38%; in experiment [2], 37.38%. Also, the IC50 in experiment [1] is 4.81 µM; in experiment [2], 14.8 µM; in experiment [4] it was at least 5 µM. The Activity in experiment [3] was found to be 56%.

With `O=C1CCCN1C(c1ccc(O)cc1O)c1c(O)ccc2ccccc12` (centres undefined), the “growth inhibition (GI)” value in experiment [1] is 35.02%. Besides, the IC50 is 84.7 µM in experiment [1] and at least 25 µM in experiment [4]. Besides, the “growth inhibition (GI)” value in experiment [2] is “inactive”. For the same compound, the Activity in experiment [3] worked out at 22%.

With `O=C1CCCN1C(c1ccc(Cl)cc1Cl)c1c(O)ccc2ccccc12` (centres undefined), the “growth inhibition (GI)” value in experiment [1] came out at 61.71%; in experiment [2], 28.26%. For the same compound, the half-inhibitory concentration (IC50) in experiment [1] is 4.23 µM; in experiment [2], 14.2 µM; in experiment [4], under 1 µM. In addition, the Activity in experiment [3] was determined as 62%.

As to `O=C1CCCN1C(c1ccc(Br)cc1)c1c(O)ccc2ccccc12` (centres undefined), the “growth inhibition (GI)” value in experiment [1] was 41.22%; in experiment [2] it was 20.22%. In addition, the concentration for half-maximal inhibition (IC50) is 16.6 µM in experiment [1], 17.6 µM in experiment [2] and at least 15 µM in experiment [4]. Further, the Activity in experiment [3] was 44%.

In the case of `N#Cc1ccc(C(c2c(O)ccc3ccccc23)N2CCCC2=O)cc1` (centres undefined), in experiment [1], the “growth inhibition (GI)” value turned out to be 33.41% and it took 80.3 µM to reach half-maximal inhibition (IC50). The “growth inhibition (GI)” value in experiment [2] was “inactive”. The Activity in experiment [3] was 28%. In experiment [4], this compound gave an IC50 of at least 25 µM.

Regarding `O=C1CCCN1C(c1ccc(O)cc1)c1c(O)ccc2ccccc12` (centres undefined), the figures for the “growth inhibition (GI)” value in experiment [1] and in experiment [2] were 30.98% and 28.14%, respectively. Moreover, the results for the IC50 in experiment [1], in experiment [2] and in experiment [4] were 31 µM, 31 µM and at least 25 µM, respectively. Moreover, the Activity in experiment [3] is 28%.

Take `O=C1CCCN1C(c1ccc(Cl)cc1)c1c(O)ccc2ccccc12` (centres undefined): the “growth inhibition (GI)” value in experiment [1] came out at 23.14%. Moreover, the IC50 in experiment [1] was 92.2 µM; in experiment [4], under 25 µM. For the same compound, in experiment [2], the “growth inhibition (GI)” value was “inactive”. In experiment [3], the Activity was determined as 42%.

On to `O=C1CCCN1C(c1ccccc1Br)c1c(O)ccc2ccccc12` (centres undefined), for which the “growth inhibition (GI)” value in experiment [1] is listed as 76.06%; in experiment [2], 48.12%. Besides, the IC50 in experiment [1] is 1.03 µM; in experiment [2], 12.9 µM; in experiment [4] it was at least 0.05 µM. Besides, in experiment [3], the Activity amounted to 79%.

For the compound `O=C1CCCN1C(c1ccc(F)cc1)c1c(O)ccc2ccccc12` (centres undefined), the figures for the “growth inhibition (GI)” value in experiment [1] and in experiment [2] were 80.23% and 60.92%, respectively. Besides, the results for the IC50 in experiment [1], in experiment [2] and in experiment [4] were 0.981 µM, 6.98 µM and at least 0.05 µM, respectively. For the same compound, the Activity in experiment [3] stood at 83%.

In the case of `COC[C@H]1OC(=O)c2coc3c2[C@@]1(C)C1=C(C3=O)[C@@H]2CCC(=O)[C@@]2(C)C[C@H]1OC(C)=O`, the Activity in experiment [3] worked out at 76%.

Take `COc1ccccc1C(c1c(O)ccc2ccccc12)N1CCCC1=O` (centres undefined): in experiment [1], the “growth inhibition (GI)” value is listed as 21.81%. The IC50 in experiment [1] is 92.1 µM; in experiment [4] it was at least 25 µM. Further, the “growth inhibition (GI)” value in experiment [2] was “inactive”. Besides, the Activity in experiment [3] turned out to be 22%.

With `COc1cccc(C(c2c(O)ccc3ccccc23)N2CCCC2=O)c1` (centres undefined), the entries for the “growth inhibition (GI)” value in experiment [1] and in experiment [2] were 39.71% and 24.55%, respectively. For the same compound, the IC50 was 15.2 µM in experiment [1], 15.2 µM in experiment [2] and at least 15 µM in experiment [4]. Besides, the Activity in experiment [3] is 46%.

As to `O=C1CCCN1C(c1cccc2ccccc12)c1c(O)ccc2ccccc12` (centres undefined), the “growth inhibition (GI)” value in experiment [1] is given as 60.46%; in experiment [2] it was 36.14%. The values for the IC50 in experiment [1], in experiment [2] and in experiment [4] were 4.47 µM, 24.8 µM and under 5 µM, respectively. Further, the Activity in experiment [3] was found to be 59%.

`O=C1CCCN1C(c1cccs1)c1c(O)ccc2ccccc12` (centres undefined): in experiment [1], the “growth inhibition (GI)” value is 30.01% and the IC50 amounted to 81.1 µM. In experiment [2], the “growth inhibition (GI)” value is “inactive”. For the same compound, in experiment [3], the Activity was found to be 24%. In addition, in experiment [4], the IC50 is at least 25 µM.
